From patent US11110055B2, “Pharmaceutical formulations of tropomyosin related kinase (TRK) inhibitors” (Genzyme Corporation, priority 2014, dated 2021)

Assay: Physical stability and aqueous dissolution of monohydrate versus anhydrate form
Type: physicochemical

Row | stability in solution | aqueous dissolution compared to the anhydrate form | physical stability compared to the anhydrate form | SMILES
1 | relatively unstable in solution | – | – | COc1ccc(COc2ccc(Cn3c(N)nc4cc(-c5cnn(C)c5)cnc43)cc2OC)cc1 [GZ389988, 3-(3-methoxy-4-((4-methoxybenzyl)oxy)benzyl)-6-(1-methyl-1H-pyrazol-4-yl)-3H-imidazo[4,5-b]pyridin-2-amine]
2 | – | slower aqueous dissolution | better physical stability | COc1ccc(COc2ccc(Cn3c(N)nc4cc(-c5cnn(C)c5)cnc43)cc2OC)cc1 [GZ389988A, 3-(3-methoxy-4-((4-methoxybenzyl)oxy)benzyl)-6-(1-methyl-1H-pyrazol-4-yl)-3H-imidazo[4,5-b]pyridin-2-amine monohydrate]
